Counter-ions that a name gives are not always drawn.
How the values were obtained:
EGFR WT = EGFR WT (Homo sapiens (Human), UniProt P00533); assay: ErbB enzyme assay (CisBio HTRF-KinEASE-TK), EGFR WT; format: biochemical; conditions: ATP at Km (25 μM), 1 h incubation
Outline: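 IC50 comes from a 4-parameter fit where the curve crosses 50 percent of control, using the 655/620 nm time-resolved fluorescence ratio with DMSO-only and pre-quenched references. Kinase reactions ran 1 h at ambient temperature before Sa-XL665/cryptate-antibody detection (1 h).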

EGFR wild type = EGFR wild type (Homo sapiens (Human), UniProt P00533); assay: ErbB cellular phosphorylation assay (phospho-EGFR ELISA), HEK-293 cells expressing EGFR wild type, EGF stimulated; format: cell-based; conditions: 1 h treatment
Chain of EGFR wild type (P00533 25-1210): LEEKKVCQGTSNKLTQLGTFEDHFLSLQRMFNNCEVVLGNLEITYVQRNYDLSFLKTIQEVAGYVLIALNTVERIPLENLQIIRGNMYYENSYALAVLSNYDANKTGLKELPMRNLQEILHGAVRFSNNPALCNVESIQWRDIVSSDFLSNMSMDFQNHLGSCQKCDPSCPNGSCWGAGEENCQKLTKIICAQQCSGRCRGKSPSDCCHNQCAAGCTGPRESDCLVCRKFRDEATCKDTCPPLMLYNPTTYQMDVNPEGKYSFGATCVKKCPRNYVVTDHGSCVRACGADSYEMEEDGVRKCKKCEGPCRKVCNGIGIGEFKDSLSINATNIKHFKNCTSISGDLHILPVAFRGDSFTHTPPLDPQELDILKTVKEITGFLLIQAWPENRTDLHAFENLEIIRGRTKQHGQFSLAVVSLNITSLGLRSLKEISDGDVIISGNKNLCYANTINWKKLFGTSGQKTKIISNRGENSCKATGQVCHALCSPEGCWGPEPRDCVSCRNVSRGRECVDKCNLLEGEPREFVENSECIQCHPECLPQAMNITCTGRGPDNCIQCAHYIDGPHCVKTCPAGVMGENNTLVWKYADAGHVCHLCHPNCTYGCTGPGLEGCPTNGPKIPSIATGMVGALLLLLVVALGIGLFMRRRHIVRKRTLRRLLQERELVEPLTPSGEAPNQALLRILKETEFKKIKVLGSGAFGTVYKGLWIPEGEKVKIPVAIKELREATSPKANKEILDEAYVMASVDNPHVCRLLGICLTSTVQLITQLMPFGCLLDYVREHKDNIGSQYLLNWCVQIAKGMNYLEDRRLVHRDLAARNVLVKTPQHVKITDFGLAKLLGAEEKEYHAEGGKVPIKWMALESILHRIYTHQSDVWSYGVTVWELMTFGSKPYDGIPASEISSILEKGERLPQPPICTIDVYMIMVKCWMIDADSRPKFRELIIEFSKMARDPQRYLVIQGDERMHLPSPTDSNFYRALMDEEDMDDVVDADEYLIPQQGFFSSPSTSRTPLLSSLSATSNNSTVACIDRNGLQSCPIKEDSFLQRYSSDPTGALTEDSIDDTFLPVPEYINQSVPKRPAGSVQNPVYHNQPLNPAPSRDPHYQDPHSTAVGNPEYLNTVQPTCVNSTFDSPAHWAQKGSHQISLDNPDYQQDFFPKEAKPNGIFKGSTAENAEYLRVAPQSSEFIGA
Description: HEK-293 cells were engineered to constitutively express ErbB2 mutant L755S or EGFR wild type (constructs obtained from GenScript, Piscataway, NJ). Cells were seeded in poly-D-lysine coated, 96-well plates at a density of 50,000 cells/well in complete medium (DMEM supplemented with 10% fetal bovine serum and G418) and incubated for 24 h at 37° C., 5% CO2 prior to treatment. Cells were treated with compound using three-fold dilutions at final concentrations ranging from […] for 1 h at 37° C., 5% CO2. EGFR-WT cells were stimulated with 500 ng/mL recombinant human EGF (R&D Systems, 236-EG) for an additional 5 min. After compound incubation, medium was removed from the plate, and cells were lysed in buffer containing protease and phosphatase inhibitors ([…]). Cell lysates were analyzed by enzyme-linked immunosorbent assay (ELISA). The ELISAs were performed to measure phosphorylated ErbB2 or phosphorylated EGFR levels, respectively (R&D Systems, DYC-1768, Human Phospho-ErbB2 DuoSet ELISA; DYC1095, Human Phospho-EGFR DuoSet IC ELISA) according to the manufacturer's instructions. Absorbance was measured at 450 nm using a BioTek Cytation 5 plate reader (Agilent, Santa Clara, CA) and IC50 values were calculated using a 4-parameter fit.

ErbB2 V777L = ErbB2 V777L (Homo sapiens (Human), UniProt P04626, V777L); assay: ErbB enzyme assay (CisBio HTRF-KinEASE-TK), ErbB2 V777L; format: biochemical
Chain of ErbB2 V777L (P04626 23-1255 V777L): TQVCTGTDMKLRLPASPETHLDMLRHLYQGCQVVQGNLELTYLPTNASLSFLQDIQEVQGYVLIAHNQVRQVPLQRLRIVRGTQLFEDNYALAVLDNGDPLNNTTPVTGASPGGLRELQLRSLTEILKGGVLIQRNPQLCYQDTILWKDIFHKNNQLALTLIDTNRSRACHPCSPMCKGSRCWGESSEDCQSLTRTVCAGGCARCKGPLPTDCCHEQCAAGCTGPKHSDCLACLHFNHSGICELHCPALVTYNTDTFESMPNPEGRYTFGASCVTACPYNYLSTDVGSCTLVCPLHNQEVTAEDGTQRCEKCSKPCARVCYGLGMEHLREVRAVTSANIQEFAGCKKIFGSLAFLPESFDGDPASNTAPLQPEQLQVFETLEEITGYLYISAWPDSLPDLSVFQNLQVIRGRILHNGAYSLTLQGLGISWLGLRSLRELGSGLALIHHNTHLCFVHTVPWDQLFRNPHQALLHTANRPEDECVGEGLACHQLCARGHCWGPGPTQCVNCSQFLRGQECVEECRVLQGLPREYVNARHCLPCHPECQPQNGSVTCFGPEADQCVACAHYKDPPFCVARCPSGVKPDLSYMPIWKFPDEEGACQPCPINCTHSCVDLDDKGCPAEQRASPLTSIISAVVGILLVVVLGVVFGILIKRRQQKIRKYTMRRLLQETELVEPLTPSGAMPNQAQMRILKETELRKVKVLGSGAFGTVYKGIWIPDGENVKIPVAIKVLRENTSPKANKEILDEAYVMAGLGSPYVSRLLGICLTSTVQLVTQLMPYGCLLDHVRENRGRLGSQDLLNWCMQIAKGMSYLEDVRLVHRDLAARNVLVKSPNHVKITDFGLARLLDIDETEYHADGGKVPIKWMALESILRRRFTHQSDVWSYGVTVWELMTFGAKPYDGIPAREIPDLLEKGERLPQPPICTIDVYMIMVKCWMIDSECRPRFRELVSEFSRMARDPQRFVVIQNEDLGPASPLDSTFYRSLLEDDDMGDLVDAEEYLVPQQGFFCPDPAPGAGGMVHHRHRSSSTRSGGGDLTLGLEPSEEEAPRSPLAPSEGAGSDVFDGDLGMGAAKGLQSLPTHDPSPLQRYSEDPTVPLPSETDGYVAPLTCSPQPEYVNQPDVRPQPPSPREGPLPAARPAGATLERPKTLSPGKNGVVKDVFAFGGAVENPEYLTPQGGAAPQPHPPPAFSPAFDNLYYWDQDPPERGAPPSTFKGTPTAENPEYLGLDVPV
Outline: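 HTRF KinEASE-TK tyrosine-kinase read-out of substrate phosphorylation after a final 1 h at ambient temperature, from the 655/620 nm emission ratio.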

Chain of EGFR WT (P00533 25-1210): as the sequence (P00533 25-1210) above

IC50 (EGFR WT) [nM]	IC50 (EGFR wild type) [nM]	IC50 (ErbB2 V777L) [nM]	Compound
< 50	1000 to 5000	–	C=CC(=O)N1CCN(c2ncc3ncnc(Nc4ccc(Oc5cc(F)c6c(c5)nnn6C)c(C)c4)c3n2)CC1 [Compound 4, 1-(4-(8-((4-((7-fluoro-1-methyl-1H-benzo[d][1,2,3]triazol-5-yl)oxy)-3-methylphenyl)amino)pyrimido[5,4-d]pyrimidin-2-yl)piperazin-1-yl)prop-2-en-1-one]
< 50	1000 to 5000	–	C=CC(=O)N1CCN(c2ncc3ncnc(Nc4ccc(Oc5ccc6c(c5)ncn6C(F)F)c(C)c4F)c3n2)CC1 [Compound 21, 1-(4-(8-((4-((1-(difluoromethyl)-1H-benzo[d]imidazol-5-y1)oxy)-2-fluoro-3-methylphenyl)amino)pyrimido[5,4-d]pyrimidin-2-yl)piperazin-1-yl)prop-2-en-1-one]
< 50	≥ 5000	–	C=CC(=O)N1CCN(c2ccc3ncnc(Nc4ccc(Oc5ccc6c(c5)nnn6C)c(C)c4F)c3n2)CC1 [Compound 95, 1-(4-(4-((2-fluoro-3-methyl-4-((1-methyl-1H-benzo[d][1,2,3]triazol-5-yl)oxy)phenyl)amino)pyrido[3,2-d]pyrimidin-6-yl)piperazin-1-yl)prop-2-en-1-one]
100 to 500	–	100 to 500	C=CC(=O)N1CCN(c2ccc3ncnc(Nc4cc(C)c(Oc5ccc6c(c5)nnn6C)cc4OC(F)(F)F)c3n2)C[C@H]1C [Compound 317, (R)-1-(2-methyl-4-(4-((5-methyl-4-((1-methyl-1H-benzo[d][1,2,3]triazol-5-yl)oxy)-2-(trifluoromethoxy)phenyl)amino)py-rido[3,2-d]pyrimidin-6-yl)piperazin-1-yl)prop-2-en-1-one]
100 to 500	–	100 to 500	Cc1cc(Nc2ncnc3cnc(N4CCN(C(=O)/C=C/CO)CC4)nc23)ccc1Oc1ccc2c(c1)nnn2C [Compound 57, (E)-4-hydroxy-1-(4-(8-((3-methyl-4-((1-methyl-1H-benzo[d][1,2,3]triazol-5-yl)oxy)phenyl)amino)pyrimido [5,4-d]pyrimidin-2-yl)piperazin-1-yl)but-2-en-1-one]
< 50	–	< 50	C=CC(=O)N1CCN(c2ncc3ncnc(Nc4ccc(Oc5ccc6c(c5)nnn6C)c(C)c4F)c3n2)C2CC21 (stereo not drawn) [Compound 48, 1-(5-(8-((2-fluoro-3-methyl-4-((1-methyl-1H-benzo[d][1,2,3]triazol-5-yl)oxy)phenyl)amino)pyrimido[5,4-d]pyrimidin-2-yl)-2,5-diazabicyclo[4.1.0]heptan-2-yl)prop-2-en-1-one]
50 to 100	–	50 to 100	C=CC(=O)N1CCC12CCN(c1ncc3ncnc(Nc4ccc(Oc5ccc6c(c5)nnn6C)c(C)c4)c3n1)C2 (stereo not drawn) [Compound 222, 1-(6-(8-((3-methyl-4-((1-methyl-1H-benzo[d][1,2,3]triazol-5-yl)oxy)phenyl)amino)pyrimido[5,4-d]pyrimidin-2-yl)-1,6-diazaspiro[3.4]octan-1-yl)prop-2-en-1-one]
500 to 1000	–	100 to 500	C=CC(=O)NC1(C)CCN(c2ccc3ncnc(Nc4ccc(Oc5ccc6c(c5)nnn6C)c(C)c4F)c3n2)CC1 [Compound 273, N-(1-(4-((2-fluoro-3-methyl-4-((1-methyl-1H-benzo[d][1,2,3]triazol-5-yl)oxy)phenyl)amino)pyrido[3,2-d]pyrimidin-6-yl)-4-methylpiperidin-4-yl)acrylamide]
≥ 1000	–	500 to 1000	C=CC(=O)N1CCN(c2ncc3ncnc(Nc4ccc(Oc5ccc6c(c5)nnn6C)c(C)c4)c3n2)CC[C@H]1C [Compound 152, (R)-1-(7-methyl-4-(8-((3-methyl-4-((1-methyl-1H-benzo[d][1,2,3]triazol-5-yl)oxy)phenyl)amino)pyrimido[5,4-d]pyrimidin-2-y1)-1,4-diazepan-1-yl)prop-2-en-1-one]
100 to 500	–	100 to 500	C=CC(=O)N[C@@H]1C[C@@H](F)CN(c2ccc3ncnc(Nc4ccc(Oc5ccc6c(c5)nnn6C)c(C)c4F)c3n2)C1 [Compound 295, N-((3R,5R)-5-fluoro-1-(4-((2-fluoro-3-methyl-4-((1-methyl-1H-benzo[d][1,2,3]triazol-5-yl)oxy)phenyl)amino)pyrido[3,2-d]pyrimidin-6-yl)piperidin-3-yl)acrylamide]

Continued, molecule first:

Compound	IC50 (EGFR WT) [nM]	IC50 (EGFR wild type) [nM]	IC50 (ErbB2 V777L) [nM]
C=CC(=O)N1CC=C(c2ccc3ncnc(Nc4ccc(Oc5ccc6c(c5)nnn6C)c(C)c4)c3n2)CC1 [Compound 109, 1-(4-(4-((3-methyl-4-((1-methyl-1H-benzo[d][1,2,3]triazol-5-yl)oxy)phenyl)amino)pyrido[3,2-d]pyrimidin-6-yl)-3,6-dihydropyridin-1(2H)-yl)prop-2-en-1-one trifluoroacetate]	100 to 500	≥ 5000	–
C=CC(=O)N1CCN(c2ncc3ncnc(Nc4cc(C)c(Oc5ccc6c(c5)ncn6C)cc4OC)c3n2)CC1 [Compound 11, 1-(4-(8-((2-methoxy-5-methyl-4-((1-methyl-1H-benzo[d]imidazol-5-yl)oxy)phenyl)amino)pyrimido[5,4-d]pyrimidin-2-yl)piperazin-1-yl)prop-2-en-1-one 2,2,2-trifluoroacetate]	100 to 500	≥ 5000	–
C=CC(=O)N1C2CCC1CN(c1ncc3ncnc(Nc4cc(C)c(Oc5cc(F)c6c(c5)ncn6C)cc4OC)c3n1)C2 [Compound 42, 1-(3-(8-((4-((7-fluoro-1-methyl-1H-benzo[d]imidazol-5-yl)oxy)-2-methoxy-5-methylphenyl)amino)pyrimido[5,4-d]pyrimidin-2-y1)-3,8-diazabicyclo[3.2.1]octan-8-yl)prop-2-en-1-one]	100 to 500	≥ 5000	–
C=CC(=O)N1CC=C(c2ccc3ncnc(Nc4ccc(Oc5ccc6c(c5)nnn6C)c(C)c4)c3n2)C1 [Compound 110, 1-(3-(4-((3-methyl-4-((1-methyl-1H-benzo[d][1,2,3]triazol-5-yl)oxy)phenyl)amino)pyrido[3,2-d]pyrimidin-6-yl)-2,5-dihydro-1H-pyrrol-1-yl)prop-2-en-1-one]	50 to 100	≥ 5000	–
C=CC(=O)N1C2CCC1CN(c1ccc3ncnc(Nc4ccc(Oc5ccc6c(c5)nnn6C)c(C)c4)c3n1)C2 [Compound 70, 1-(3-(4-((3-methyl-4-((1-methyl-1H-benzo[d][1,2,3]triazol-5-yl)oxy)phenyl)amino)pyrido[3,2-d]pyrimidin-6-yl)-3,8-diazabicyclo[3.2.1]octan-8-yl)prop-2-en-1-one]	100 to 500	1000 to 5000	–
C=CC(=O)N1[C@@H]2CC[C@H]1C[C@@H](Oc1ncc3ncnc(Nc4ccc(Oc5ccc6c(c5)ncn6C)c(C)c4)c3n1)C2 [Compound 391, 1-((1R,3r,5S)-3-((8-((3-methyl-4-((1-methyl-1H-benzo[d]imidazol-5-yl)oxy)phenyl)amino)pyrimido[5,4-d]pyrimidin-2-yl)oxy)-8-azabicyclo[3.2.1]octan-8-yl)prop-2-en-1-one]	500 to 1000	–	500 to 1000
C=CC(=O)N(C)CCOc1ncc2ncnc(Nc3ccc(Oc4ccc5c(c4)ncn5C)c(C)c3)c2n1 [Compound 384, N-methyl-N-(2-((8-((3-methyl-4-((1-methyl-1H-benzo[d]imidazol-5-yl)oxy)phenyl)amino)pyrimido[5,4-d]pyrimidin-2-yl)oxy)ethyl)acrylamide]	≥ 1000	–	50 to 100
C=CC(=O)N1CCN(c2ccc3ncnc(Nc4ccc(Oc5cnc6c(c5)ncn6C(F)F)c(C)c4F)c3n2)C[C@H]1C [Compound 261, (R)-1-(4-(4-((4-((3-(difluoromethyl)-3H-imidazo[4,5-b]pyridin-6-yl)oxy)-2-fluoro-3-methylphenyl)amino)pyrido[3,2-d]pyrimidin-6-yl)-2-methylpiperazin-1-yl)prop-2-en-1-one]	< 50	–	100 to 500
C=CC(=O)N1CCN(c2ccc3ncnc(Nc4ccc(Oc5ccc6c(c5)nnn6C(F)F)c(C)c4)c3n2)C[C@H]1C [Compound 320, (R)-1-(4-(4-((4-((1-(difluoromethyl)-1H-benzo[d][1,2,3]triazol-5-yl)oxy)-3-methylphenyl)amino)pyrido[3,2-d]pyrimidin-6-yl)-2-methylpiperazin-1-yl)prop-2-en-1-one]	100 to 500	–	100 to 500
C=CC(=O)N1CCN(c2ccc3ncnc(Nc4ccc(Oc5ccc6c(c5)ncn6C(F)F)c(C)c4)c3n2)C[C@@H]1C1CC1 [Compound 278, (S)-1-(2-cyclopropyl-4-(4-((4-((1-(difluoromethyl)-1H-benzo[d]imidazol-5-yl)oxy)-3-methylphenyl)amino)pyrido[3,2-d]pyrimidin-6-yl)piperazin-1-yl)prop-2-en-1-one]	500 to 1000	–	100 to 500
C=CC(=O)N1C[C@@H](N(C)c2ccc3ncnc(Nc4ccc(Oc5ccc6c(c5)nnn6C)c(C)c4)c3n2)C[C@H]1C [Compound 351, 1-((2R,4S)-2-methyl-4-(methyl(4-((3-methyl-4-((1-methyl-H-benzo[d][1,2,3]triazol-5-yl)oxy)phenyl)amino)pyrido[3,2-d]pyrimidin-6-yl)amino)pyrrolidin-1-yl)prop-2-en-1-one]	500 to 1000	–	100 to 500

— patent US20250129078A1, “ERBB2 INHIBITORS” (Cogent Biosciences, Inc., priority 2023, published 2025)
